Laboratory results taken from patent US12331032B2, “Quinone reductase 2 inhibitor compounds and uses thereof” (DUKE UNIVERSITY, priority 2018, dated 2025).

Tests used:
[1] = biological target: T1, quinone reductase 2 (QR2) (Homo sapiens, UniProt P16083); assay: QR2 inhibition, comparative IC50 data; format: biochemical; conditions: QR2 inhibitors
T1 sequence (P16083 1-231): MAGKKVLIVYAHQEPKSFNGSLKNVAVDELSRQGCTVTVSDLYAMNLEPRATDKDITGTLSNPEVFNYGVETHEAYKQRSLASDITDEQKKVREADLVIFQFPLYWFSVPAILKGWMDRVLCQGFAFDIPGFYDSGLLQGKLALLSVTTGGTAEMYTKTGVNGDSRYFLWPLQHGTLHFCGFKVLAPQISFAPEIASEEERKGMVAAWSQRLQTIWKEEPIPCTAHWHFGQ

[2] = test system: mouse model of closed head injury (TBI); assay: Rotorod vestibulomotor function after closed head injury (TBI); format: in vivo; conditions: mice, i.p. at 4 hours following TBI, after 5 days
Description: The TBI model involves a single impact designed to avoid skull fracture. Injury is produced predominantly through acceleration/deceleration forces. For this model, therapeutic compounds were delivered i.p. at 4 hours following TBI, and then once weekly thereafter for the duration of the experiment, which terminated after 28 days following assessment of spatial learning and memory. […] Mice were tested on Rotorod for 5 consecutive days post TBI, then on day 7 and day 28.

[3] = test system: mouse model of closed head injury (TBI); assay: Morris Water maze spatial learning and memory after TBI; format: in vivo; conditions: days 28-31 post-injury
Description: The TBI model involves a single impact designed to avoid skull fracture. Injury is produced predominantly through acceleration/deceleration forces. For this model, therapeutic compounds were delivered i.p. at 4 hours following TBI, and then once weekly thereafter for the duration of the experiment, which terminated after 28 days following assessment of spatial learning and memory. FIG. 5A-B summarize the results of spatial learning and memory assessments at 4 weeks following TBI, using the Morris Water maze to test the ability of mice to locate a submerged platform. The mice performed four trials/day for 4 consecutive days (inter-trial interval=30 min). The latency to locate the platform was recorded, and the 4 trials per day were averaged. Mice were tested on days 28-31 post-injury (n=11-12 mice per group). Standard control trials to confirm intact vision were also performed.

[4] = test system: permanent MCA occlusion model; conditions: cited from earlier work
[5] = acidic lysomal pHs between 4 and 5.5; cited from earlier work

IC50 [1] [µM] | SMILES | improvement in Rotorod latency over CQ [2] [%] | improvement in Rotorod latency over vehicle [2] [%] | improvement in learning and memory over vehicle (Morris Water maze) [3] | reduction of stroke volumes [4] [%] | fraction doubly protonated [5] [%]
7.51 | COc1ccc2c(NCc3cccnc3)ccnc2c1 [QR2I-44, 7-methoxy-4-(pyridin-3-yl) methylaminoquinoline] | ~200 | ~300 | 30-35% | – | –
70.9 | CCN(CC)CCCC(C)Nc1ccnc2cc(Cl)ccc12 (stereo not shown) [chloroquine] | – | – | – | 60 | ~100
